Results as given in patent US9222016B2, “Compound having fluorescent chromophore, ion concentration sensor including compound, reagent including compound, reagent kit provided with reagent, precursor of compound, and method for synthesizing compound” (National University Corporation Hokkaido University, priority 2011, dated 2015).

Experiments:
[1] = Fluorescence spectrum measurement of triazapentalenes (Example 3); format: physicochemical; details: for λem (emission wavelength): excitation at absorption maximum; for φr (relative fluorescence quantum yield): dichloromethane, standard 9,10-bis(phenyl ethynyl)anthracene (0.96)
Description: The fluorescence spectrum of various triazapentalenes that have been synthesized by the same method as described in Example 1 and Example 2 was measured. A method for measurement will be specifically described below.
As triazapentalenes, compounds with the substituent group being a phenyl group, methoxyphenyl group, 2-cyanophenyl group, methoxycarbonylphenyl group, methyl ester group, diphenyl group, 3-cyanophenyl group, and nitrophenyl group were used.
(§1) Each of the above compounds was made into solution with concentration shown in Table 2 using dichloromethane as a solvent. […] The concentration of a sample solution was adjusted such that the intensity (Abs.) of absorption maximum wavelength was 0.100±0.005, and using a spectrophotometer (manufactured by Hitachi High-Technologies Corporation, U-3500), each fluorescence spectrum was measured with excitation wavelength (λex)=326 nm to 412 nm that was equal to absorption maximum wavelength. The fluorescence quantum yield was determined using 9,10-bis(phenyl ethynyl)anthracene (absolute fluorescence quantum yield=0.96) as a standard substance.
In FIG. 1 and Table 2, with regard to a substituent group, Ph represents a phenyl group, Me represents a methyl group, CO2Me represents a methyl ester group, OMe represents a methylalkoxy group, and CN represents a cyano group. Further, in Table λex represents excitation wavelength, ε represents a molar extinction coefficient, λem represents emission wavelength, φr represents a relative fluorescence quantum yield using 9,10-bis(phenyl ethynyl)anthracene (absolute fluorescence quantum yield=0.96) as a standard, and “−” represents no measurement data available.

[2] = standard substance; cited from earlier work
[3] = substituent at R^5; cited from earlier work
[4] = Solvatochromic fluorescence of triazapentalenes in various solvents (Example 4); format: physicochemical; details: dichloromethane, acetonitrile, benzene
Description: The fluorescence of a triazapentalene compound whose substituent group was -PhCN was measured in various solvents. A method for measurement will be specifically described below.
As solvents, dichloromethane (manufactured by Junsei Chemical Co., Ltd.), acetonitrile (manufactured by Kanto Chemical Co., Inc.), benzene (manufactured by Nacalai Tesque, Inc.), and acetone (manufactured by Nacalai Tesque, Inc.) were individually used.
Each of the triazapentalene compound whose substituent group was -PhCN was dissolved in the above solvent. With regard to the concentration of each solution, the concentration of solution with dichloromethane being used as the solvent was 5.81×10^−6 mol/L, the concentration of solution with acetonitrile being used as the solvent was 3.65×10^−6 mol/L, the concentration of solution with benzene being used as the solvent was 5.43×10^−6 mol/L, and the concentration of solution with acetone being used as the solvent was 6.63×10^−6 mol/L. Using a […] (manufactured by Hitachi High-Technologies Corporation, F-4500), the ultraviolet absorption spectrum was measured, and the absorption maximum wavelength (λmax) was determined to be 382 nm. […] The fluorescence quantum yield was determined using 9,10-bis(phenyl ethynyl)anthracene (absolute fluorescence quantum yield=0.96) as a standard substance.

[5] = Maximum absorption wavelength, maximum fluorescence wavelength and fluorescence quantum yield (Example 6); format: physicochemical; details: same manner as Example 3
Description: as §1
For each of the compounds shown in Table 3, the maximum absorption wavelength (λabs^max), maximum fluorescence wavelength (λem^max), and fluorescence quantum yield (ΦF) were measured. Further, the Hammett constant (σp) of substituent group was together described in Table 3. In Table 3, “-” represents no measurement data available. The measurement of the absorption wavelength, fluorescence wavelength, and fluorescence quantum yield was carried out in the same manner as described in Example 3. Here, a method of synthesizing compounds of 1o^a and 1r will be later described in Example 8. Compounds of 1e, 1n, 1f, 1g, 1l, 1k, 1h, and 1m, which are shown in Table 3 were synthesized by the method and condition described in Examples 1 to 2. Further, the compound 1a shown in Table 3 was synthesized under the under the same condition as in Example 1 and Example 2 except that a CO2CH3 part in the chemical formula 13 of the reaction formula (5) was replaced with a hydrogen atom. Thereby, the compound 1a having a triazapentalene backbone whose R^5 position was bound with the hydrogen atom was obtained.

[6] = Fluorescence of disubstituted product (Example 7); format: physicochemical; details: CH2Cl2 solution, excitation wavelength 370 nm
From the text: Disubstituted products other than the disubstituted product represented by the chemical formula 20 are synthesized by the same method as the disubstituted product represented by the chemical formula 20. The numerical values in Table 4 and Table 5 were obtained in CH2Cl2 solution under a condition of an excitation wavelength of 370 nm

| SMILES | λex (excitation wavelength, equal to absorption maximum wavelength λmax) ([1]; dichloromethane solution) [nm] | λem (emission wavelength) ([1]; dichloromethane solution) [nm] | ε (molar extinction coefficient) ([1]; dichloromethane solution) | φr (relative fluorescence quantum yield) [1] [%] | absorption maximum wavelength (λmax) ([4]; acetone solutions) [nm] | solvatochromism of fluorescence spectrum (FIG. 2) ([4]; acetone, λex 382 nm) | λabs^max (maximum absorption wavelength) [5] [nm] | λem^max (maximum fluorescence wavelength) [5] [nm] | φF (fluorescence quantum yield) [5] | λabs (absorption wavelength) [6] [nm] | λem (fluorescence wavelength) [6] [nm] | φF (quantum yield) [6] | fluorescence intensity (FIG. 1) ([1]; dichloromethane solution) | absolute fluorescence quantum yield [2] | Hammett σP of substituent group [3] |
| --- | --- | --- | --- | --- | --- | --- | --- | --- | --- | --- | --- | --- | --- | --- | --- |
| Cn1c(-c2cccc(C#N)c2)cn2ccc[n+]12 | 330 | 481 |  |  |  |  |  |  |  |  |  |  |  |  |  |
| C(#Cc1c2ccccc2c(C#Cc2ccccc2)c2ccccc12)c1ccccc1 [9,10-bis(phenylethynyl)anthracene] |  |  |  |  |  |  |  |  |  |  |  |  |  | 0.96 |  |
| Cn1c(-c2ccc(C#N)cc2)cn2ccc[n+]12 [Compound 1h] | 381 | 509 | 2.85 10^3 cm − M^−1 | 18 | 382 | significant solvatochromism was observed | 381 | 509 | 0.18 | 381 | 509 | 0.18 | stronger fluorescence intensity |  | 0.71 |

Now from value to compound, other results behind:

| λex (excitation wavelength, equal to absorption maximum wavelength λmax) ([1]; dichloromethane solution) [nm] | λem (emission wavelength) ([1]; dichloromethane solution) [nm] | ε (molar extinction coefficient) ([1]; dichloromethane solution) | φr (relative fluorescence quantum yield) [1] [%] | absorption maximum wavelength (λmax) ([4]; acetone solutions) [nm] | solvatochromism of fluorescence spectrum (FIG. 2) ([4]; acetone, λex 382 nm) | λabs^max (maximum absorption wavelength) [5] [nm] | λem^max (maximum fluorescence wavelength) [5] [nm] | φF (fluorescence quantum yield) [5] | λabs (absorption wavelength) [6] [nm] | λem (fluorescence wavelength) [6] [nm] | φF (quantum yield) [6] | fluorescence intensity (FIG. 1) ([1]; dichloromethane solution) | SMILES | absolute fluorescence quantum yield [2] | Hammett σP of substituent group [3] |
| --- | --- | --- | --- | --- | --- | --- | --- | --- | --- | --- | --- | --- | --- | --- | --- |
| 326 | 419 | 3.82 10^3 cm − M^−1 | 3.0 |  |  |  |  |  |  |  |  |  | Cn1c(-c2ccccc2)cn2ccc[n+]12 [Compound 1f] |  | 0.00 |
| 376 | 510 | 3.02 10^3 cm − M^−1 | 51 |  |  | 376 | 510 | 0.51 |  |  |  |  | COC(=O)c1ccc(-c2cn3ccc[n+]3n2C)cc1 [Compound 1k] |  | 0.47 |
| 412 | 556 |  | 16 |  |  | 412 | 556 | 0.16 |  |  |  |  | Cn1c(-c2ccc([N+](=O)[O-])cc2)cn2ccc[n+]12 [Compound 1m] |  | 0.81 |
| 330 | 413 | 5.70 10^3 cm − M^−1 | 6.2 |  |  | 330 | 413 | 0.062 |  |  |  |  | COc1ccc(-c2cn3ccc[n+]3n2C)cc1 [Compound 1n] |  | −0.28 |
